Patent US12558349B2, “Methods of treating infections in overweight and obese patients using antibiotics” (MELINTA SUBSIDIARY CORP., priority 2013, dated 2026)
Read-outs that look alike come from different tables or passages of the source.

Experiments:
[1] = test system: Acute Bacterial Skin and Skin Structure Infections (ABSSSI); test: Phase 2b clinical trial in ABSSSI: Investigators' Global Assessment of Cure; type: in vivo, human; details: for Response Rate, Investigators' Global Assessment of Cure: ITT; for Response Rate, Investigators' Global Assessment of Cure / Percent Clinical Cure (ITT): delafloxacin 300 mg BID, Zyvox 600 mg BID, vancomycin 1,000 to 2,000 mg BID, comparators with and without aztreonam; for Percent Clinical Cure (ITT): Investigators' Global Assessment of Cure; for Clinical activity with increased patient weight: Phase 2b data by weight/BMI
Excerpt: (§1) The term “cure” or “Investigators' Global Assessment of Cure” as used herein refers to complete resolution of all signs and symptoms at the follow-up visit.

Confirmed MRSA = test: Phase 2b clinical trial: Investigators' Global Assessment of Cure in Patients with Confirmed MRSA; type: in vivo, human; details: comparators with and without aztreonam; for Response Rate, Investigators' Global Assessment of Cure in Patients with Confirmed MRSA: MITT; for Percent Clinical Cure (MITT): patients with confirmed MRSA
Excerpt: as §1

[2] = test system: Acute Bacterial Skin and Skin Structure Infections (ABSSSI); test: Phase 2b clinical trial: Objective Endpoint at 48 to 72 hours (cessation of lesion spread and absence or resolution of fever); type: in vivo, human; details: comparators with and without aztreonam; for Percent Cessation of Spread of Erythema and Absence of Fever at 48 to 72 Hours: secondary endpoint
[3] = test system: Acute Bacterial Skin and Skin Structure Infections (ABSSSI); test: Phase 2b clinical trial: reduction in the size of the lesion at 48 to 72 hours; type: in vivo, human
[4] = Phase 2b clinical trial: adverse events; details: for Overall adverse event rates: across the Phase 2b study; for Specific limiting toxicity: human, in vivo
[5] = human, in vivo

Nc1nc(-n2cc(C(=O)O)c(=O)c3cc(F)c(N4CC(O)C4)c(Cl)c32)c(F)cc1F [Delafloxacin, 1-(6-amino-3,5-difluoro-2-pyridinyl)-8-chloro-6-fluoro-1,4-dihydro-7-(3-hydroxy-1-azetidinyl)-4-oxo-3-quinolinecarboxylic acid]
Efficacy compared to vancomycin, primary endpoint Investigators' Global Assessment of Cure ([1]; 95% Confidence Interval −30.3%, −2.3%, p=0.031): statistically significant efficacy advantage
Response Rate, Investigators' Global Assessment of Cure [1]: 57/81
Percent Clinical Cure (ITT) [1]: 70.4%
Clinical activity with increased patient weight [1]: maintained
Response Rate, Investigators' Global Assessment of Cure in Patients with Confirmed MRSA (Confirmed MRSA): 19/29
Percent Clinical Cure (MITT) (Confirmed MRSA): 65.56%
Response Rate, Objective Endpoint at 48 to 72 hours [2]: 61/78
Percent Cessation of Spread of Erythema and Absence of Fever at 48 to 72 Hours [2]: 78.2%
Percent Cessation of Spread of Erythema and Absence of Fever at 48 to 72 Hours ([2]; listed as delafloxacin): approximately 78%
Percentage of patients with a 30% or greater reduction in the size of the lesion, versus comparators [3]: greater percentage of patients
Evidence for toxicities common in the fluoroquinolone class (phototoxicity, elevated liver enzymes, dysglycemia, QT prolongation) ([4]; Phase 2b study): did not demonstrate evidence
Leading adverse event ([4]; Phase 2b study): gastrointestinal, or GI, disorder
Most common specific adverse event ([4]; Phase 2b study): mild to moderate diarrhea
Overall adverse event rates [4]: 74%
Specific limiting toxicity [4]: no specific limiting toxicity

CN[C@H](CC(C)C)C(=O)N[C@H]1C(=O)N[C@@H](CC(N)=O)C(=O)N[C@H]2C(=O)N[C@H]3C(=O)N[C@H](C(=O)N[C@H](C(=O)O)c4cc(O)cc(O)c4-c4cc3ccc4O)[C@H](O)c3ccc(c(Cl)c3)Oc3cc2cc(c3O[C@@H]2O[C@H](CO)[C@@H](O)[C@H](O)[C@H]2O[C@H]2C[C@](C)(N)[C@H](O)[C@H](C)O2)Oc2ccc(cc2Cl)[C@H]1O [Vancomycin]
Response Rate, Investigators' Global Assessment of Cure [1]: 53/98
Percent Clinical Cure (ITT) [1]: 54.1%
Clinical activity with increased patient weight [1]: decline
Response Rate, Investigators' Global Assessment of Cure in Patients with Confirmed MRSA (Confirmed MRSA): 21/32
Percent Clinical Cure (MITT) (Confirmed MRSA): 65.6%
Response Rate, Objective Endpoint at 48 to 72 hours [2]: 69/95
Percent Cessation of Spread of Erythema and Absence of Fever at 48 to 72 Hours [2]: 72.6%
Percent Cessation of Spread of Erythema and Absence of Fever at 48 to 72 Hours ([2]; listed as vancomycin): ~73%
Specific limiting toxicity [5]: kidney
Leading adverse event ([4]; Phase 2b study): disorders of the skin
Most common specific adverse event ([4]; Phase 2b study): pruritus
Patients who experienced renal issues ([4]; Phase 2b study arm): three
Renal failures ([4]; Phase 2b study arm, among the renal issues): two
Overall adverse event rates [4]: 65%

CC(=O)NC[C@H]1CN(c2ccc(N3CCOCC3)c(F)c2)C(=O)O1 [Zyvox, N-[[(5S)-3-[3-fluoro-4-(4-morpholinyl)phenyl]-2-oxo-5-oxazolidinyl]methyl]acetamide]
Response Rate, Investigators' Global Assessment of Cure [1]: 50/77
Percent Clinical Cure (ITT) [1]: 84.9%
Clinical activity with increased patient weight [1]: decline
Response Rate, Investigators' Global Assessment of Cure in Patients with Confirmed MRSA (Confirmed MRSA): 21/34
Percent Clinical Cure (MITT) (Confirmed MRSA): 61.8%
Response Rate, Objective Endpoint at 48 to 72 hours [2]: 56/75
Percent Cessation of Spread of Erythema and Absence of Fever at 48 to 72 Hours [2]: 74.7%
Percent Cessation of Spread of Erythema and Absence of Fever at 48 to 72 Hours ([2]; listed as linezolid): ~75%
Leading adverse event ([4]; Phase 2b study): GI disorder
Most common specific adverse event ([4]; Phase 2b study): nausea
Subjects who experienced thrombocytopenia ([4]; Phase 2b study arm): two
Overall adverse event rates [4]: 72%
Specific limiting toxicity [4]: bone marrow
